Results published in US11596648B2, “Emollient topical disinfectants” (priority 2016, dated 2023).
Read-outs that look alike come from different tables or passages of the source. Each block holds one compound with its values, some of them ahead of it.

Assays:
[1] = Viscosity with Brookfield DV2T viscometer (Example 7); format: physicochemical; settings: for viscosity: extrapolated to zero shear
Procedure: Viscosity was measured using a Brookfield DV2T viscometer which allowed for the precise control of the temperature at which the viscosity was measured. The Brookfield DV2T was programmed to measured viscosity at different shear rates by systematically ramping the spindle (CP-40 or CP-52) speed up and then down as shown in FIG. 4A for propylene glycol at 25° C.
The viscosity values were fitted to a curve and extrapolated to the zero shear value to arrive at a final estimate for viscosity.
One series of samples was prepared without molecular iodine and a second series was prepared that contained 800 ppm molecular iodine. The viscosity of these samples was measured as described above using an up-down rate ramp program. The results were fitted to an Ostwald model, i.e. stress versus shear rate curve fit, and the consistency constant was reported as the viscosity.

[2] = Iodine vapor detection with iodine sensitive paper disc in vial lid (Example 4); settings: acetate buffer; cyclodextrin 50 mM
Procedure: Solutions of these cyclodextrins were prepared in acetate buffer or propylene glycol, both containing molecular iodine as follows. Cyclodextrins were weighed and added to vials. Saturated solutions of molecular iodine (Alfa Aesar 14248 Lot 104Z003) were then prepared in either: (a) […] acetate buffer (pH 4.5); or (b) propylene glycol.
Aliquots of each solution of the different cyclodextrins were added to vials to a final cyclodextrin concentration of 50 mM. […] The screw-top lid of each vial was fitted with an iodine sensitive paper disc (Fluka #37215, Lot SZBF1310V) that fit tightly in the lid so the paper was exposed to the atmosphere in the vial which would allow the paper to react with molecular iodine that was in the vapor phase.
At time points of: one (1) hour; six (6) hours; and twenty-four (24) hours, the color of the indicator paper on the inside of the screw-top lids were examined and photographed.

[3] = Potassium iodide starch paper coloration versus time, vapor pressure of molecular iodine (Example 5); settings: cyclodextrin 50 mM; for reduction in vapor pressure of molecular iodine in the acetate buffer (ranking): 0.1M acetate buffer pH 4.5; for ability to reduce the vapor pressure of molecular iodine in an aqueous environment (conclusion): acetate buffer
From the text: Alpha cyclodextrin (cat. number C4642, Sigma Life Sciences, Lot 2X SLBK4630V, CAS 10016-20-3), beta cyclodextrin (cat. number C4767, Sigma Life Sciences, Lot MKBV2085V, CAS 7585-39-9), gamma cyclodextrin (cat. number C4892, Sigma Life Sciences, Lot SLBL4156V, CAS 17465-86-0), methyl beta cyclodextri, (cat. number C4555, Sigma Life Sciences, Lot WXBC0745V, CAS 128446-36-6) and 2-hydroxypropyl-beta-cyclodextrin (cat. number H107, Sigma Life Sciences, Lot WXBC0083V, CAS 128446-35-5) were weighed into vials.
Aliquots of saturated molecular iodine in either propylene glycol or 0.1M acetate buffer (pH 4.5) were added to the vials to yield a final cyclodextrin concentration of 50 mM. The samples were lightly vortexed to dissolve the cyclodextrins. Control vials were prepared consisting of saturated iodine in either propylene glycol or 0.1M acetate buffer pH 4.5.
Analytical potassium iodide starch paper (Fluka #37215, Lot SZBF1310V) was cut into circle and placed inside the screw-top lid of the vials in a manner that held the paper in place once the lid was screwed onto the vial.
Provided in FIGS. 2A-2L are pictures of the starch paper taken at different time points to document the color of the starch paper versus time of exposure to the atmosphere inside of the vial. The operating assumption was that the color of the starch paper would be proportional to the time of exposure to the concentration of molecular iodine in the atmosphere inside of the vial.
The concentration of molecular iodine in the atmosphere inside of the vial is proportional to the vapor pressure of dissolved molecular iodine in the liquid phase.

[4] = rats, 1 hour; cited from earlier work
[5] = cited from earlier work
[6] = cited from earlier work; remark: listed apart in the source

Compound: OC[C@H]1O[C@@H]2O[C@H]3[C@H](O)[C@@H](O)[C@@H](O[C@H]4[C@H](O)[C@@H](O)[C@@H](O[C@H]5[C@H](O)[C@@H](O)[C@@H](O[C@H]6[C@H](O)[C@@H](O)[C@@H](O[C@H]7[C@H](O)[C@@H](O)[C@@H](O[C@H]8[C@H](O)[C@@H](O)[C@@H](O[C@H]9[C@H](O)[C@@H](O)[C@@H](O[C@H]1[C@H](O)[C@H]2O)O[C@@H]9CO)O[C@@H]8CO)O[C@@H]7CO)O[C@@H]6CO)O[C@@H]5CO)O[C@@H]4CO)O[C@@H]3CO [gamma cyclodextrin, γ-cyclodextrin]
color of iodine indicator paper / iodine vapor at 6 hours [2]: clearly detected | color of iodine indicator paper / iodine vapor at 24 hours [2]: deeply stained

Compound: methyl-β-cyclodextrin
effect on vapor pressure of molecular iodine in an aqueous environment [2]: reduces the vapor pressure of molecular iodine | reduction in vapor pressure of molecular iodine in the acetate buffer (ranking) [3]: greatest reduction in vapor pressure | ability to reduce the vapor pressure of molecular iodine in an aqueous environment (conclusion) [3]: most effective

Compound: hydroxypropyl-β-cyclodextrin [hyroxypropyl-β-cyclodextrin]
color of iodine indicator paper / iodine vapor at 24 hours [2]: clearly detected | effect on vapor pressure of molecular iodine in an aqueous environment [2]: reduces the vapor pressure of molecular iodine | reduction in vapor pressure of molecular iodine in the acetate buffer (ranking) [3]: greatest reduction in vapor pressure | ability to reduce the vapor pressure of molecular iodine in an aqueous environment (conclusion) [3]: most effective

Compound: II [Molecular iodine, molecular iodine]
lowest lethal atmospheric concentration [4]: 80 ppm | maximum iodine that can build up in a closed container ([5]; 25° C., standard atmospheric pressure): ≤ 394 ppm | vapor pressure ([5]; 25° C.): 0.3 mm | vapor pressure ([5]; 38.7° C.): 1 mm | permissible exposure limit ([6]; NIOSH, OSHA): 0.1 ppm | concentration with severe eye irritation ([6]; after 2 minutes): 1.63 ppm | concentration at which humans can work undisturbed ([6]; iodine vapor, inhalation): 0.1 ppm | concentration at which humans work with difficulty ([6]; iodine vapor, inhalation): 0.15-0.2 ppm | concentration that humans cannot tolerate ([6]; iodine vapor, inhalation): ≥ 0.3 ppm | level at which odor is detected ([6]; iodine vapor): about 0.9 ppm

Second part, the compound after the results:

viscosity ([1]; 25° C.): 59 cP | viscosity ([1]; 33° C.): 95 cP | flow behaviour ([1]; viscosity versus shear): behaves like a Newtonian fluid
Compound: CC(O)CO (stereo not drawn) [propylene glycol]

color of iodine indicator paper / iodine vapor at 6 hours [2]: clearly detected | color of iodine indicator paper / iodine vapor at 24 hours [2]: deeply stained
Compound: OC[C@H]1O[C@@H]2O[C@H]3[C@H](O)[C@@H](O)[C@@H](O[C@H]4[C@H](O)[C@@H](O)[C@@H](O[C@H]5[C@H](O)[C@@H](O)[C@@H](O[C@H]6[C@H](O)[C@@H](O)[C@@H](O[C@H]7[C@H](O)[C@@H](O)[C@@H](O[C@H]8[C@H](O)[C@@H](O)[C@@H](O[C@H]1[C@H](O)[C@H]2O)O[C@@H]8CO)O[C@@H]7CO)O[C@@H]6CO)O[C@@H]5CO)O[C@@H]4CO)O[C@@H]3CO [β-cyclodextrin]
